Measurements published in patent US9072753B1, “Gargle method to reduce the duration of common cold symptoms” (priority 2001, dated 2015).
“Also recorded” adds a separate entry of the source. Where two headings read alike, the source gives them in different places.

Tests used:
[1] = test system: broad spectrum of viruses; conditions: cited from earlier work
[2] = test system: myxoviruses; conditions: cited from earlier work
[3] = test system: RNA-dependent DNA polymerases (reverse transcriptases) of both Moloney and Rauscher leukemia viruses; conditions: cited from earlier work
[4] = in vivo; cited from earlier work
[5] = test system: cells in tissue culture; conditions: high concentrations; cited from earlier work
[6] = test system: Rhinovirus 14; assay: Antiviral activity testing against rhinovirus (Rhinovirus 14 in KB cells); format: cell-based; conditions: for Virus Inhibition: 4 values and above indicate excellent antiviral activity
[7] = test system: Influenza A/Hong Kong/68 (H3N2); assay: Antiviral activity testing against influenza virus in MDCK cells; format: cell-based; conditions: Influenza A/Hong Kong/68 (H3N2) in MDCK cells; for Virus Inhibition: 4 values and above indicate excellent antiviral activity
Source text: Results of antiviral invitro testing performed at baylor college of medicine department of molecular virology & microbiology.

[8] = test system: Madin Darby Canine Kidney (MDCK) cells; assay: Toxicity of materials in the influenza test (MDCK cells); format: cell-based; conditions: Table 2
[9] = test system: KB cells
[10] = test system: common cold; conditions: after seven days; 37 zinc-treated subjects; cited from earlier work
[11] = test system: common cold; assay: Case examples, nonalcoholic mouthwash remedies in subjects with a cold; format: in vivo, human; conditions: single subject per example; 15 ml mouthwash three times a day for at least two days
Description: In order to facilitate a more complete understanding of the invention, a number of Examples are provided below. However, the scope of the invention is not limited to specific embodiments disclosed in these Examples, which are for purposes of illustration only. In each of the following Examples, the subjects were administered one tablespoon (15 ml) of remedy in a mouthwash formulation three times a day for at least two days comprising: […]

[12] = healthy HIV-negative humans; cited from earlier work

Compound	Virus Inhibition [6]	Virus Inhibition [7]	Toxicity [8]	Toxicity ([9]; human)	Recovery from the cold [11]	other results
COC(=O)C1=CO[C@@H](C)[C@@H](C=O)[C@@H]1CC(=O)[O-].COC(=O)C1=CO[C@@H](C)[C@@H](C=O)[C@@H]1CC(=O)[O-].[Ca+2] [calcium elenolate]						Virucidal activity in vitro [1]: virucidal for a broad spectrum of viruses in vitro; Inactivation of myxoviruses [2]: inactivates all myxoviruses so far tested; Inhibition of reverse transcriptases [3]: inhibits; Tolerability in animals [4]: well tolerated; Toxicity to cells in tissue culture [5]: relatively nontoxic
OO [Hydrogen Peroxide]	7	6	6	7		
zinc						Subjects asymptomatic [10]: 86%
O=C([O-])O.[Na+] [Baking Soda]	4	2	0		within one day; also recorded: within two days; also recorded: within three days	Selective Inhibition [6]: 2; Selective Inhibition [7]: 4; Toxicity [9]: 2
O=C(O)CC(O)C(=O)O (centres unmarked) [Malic Acid]	6	6	6	6		
CCCc1cc(=O)oc2c3c(c4c(c12)OC(C)(C)C=C4)O[C@H](C)[C@@H](C)[C@@H]3O [Calanolide A]						Safety and tolerability [12]: safe and well tolerated
O=C(O)CC(O)(CC(=O)O)C(=O)O [Citric Acid]	6	6	6	6	within three days; also recorded: within one day; also recorded: within four days; also recorded: within two days; also recorded: within ten days; also recorded: within five days	
O=C1O[C@H]([C@@H](O)CO)C(O)=C1O [Ascorbic Acid]	4				within one day; also recorded: within two days	
